Converted amounts (≈) assume the structure as drawn.

In US4267176A, “Amino or acylamino-substituted pyrimidinyl cephalosporanic acid derivatives and pharmaceutical compositions thereof” (Fujisawa Pharmaceutical Co., Ltd., priority 1977, dated 1981) one finds MIC data, which are given here for 14 molecules.

The test system of test [1] is Proteus vulgaris IAM 1025. In words: In vitro antibacterial activity, two-fold agar-plate dilution method (MIC), Proteus vulgaris. It is filed as cell-based. The settings on record: IAM1025, heart infusion agar, 37° C. for 20 hours, approximately 10^6 cells per ml, read-out: MIC (minimal inhibitory concentration). How it is done:
(§1) In vitro antibacterial activity was determined by the two-fold agar-plate dilution method as described below. One loopful of an overnight culture of each test strain in Trypticase-soy broth (approximately 10^6 […] cells per ml.) was streaked on heart infusion agar (HI-agar) containing graded concentrations of antibiotics, and the minimal inhibitory concentration (MIC) was expressed in […] of μg/ml after incubation at 37° C. for 20 hours.

Test [2] concerns Pseudomonas aeruginosa NCTC-10490. In words: In vitro antibacterial activity, two-fold agar-plate dilution method (MIC), Pseudomonas aeruginosa. In kind it is cell-based. The conditions noted are these: NCTC10490, heart infusion agar, 37° C. for 20 hours, approximately 10^6 cells per ml, read-out: MIC (minimal inhibitory concentration). How it is done: as §1

On to `CCCO/N=C(\C(=O)NC1C(=O)N2C(C(=O)O)=C(CSc3nncs3)CSC12)c1nccc(N)n1` (stereo not drawn) [compound 4, 7-[2-(4-Aminopyrimidin-2-yl)-2-propoxyiminoacetamido]-3-(1,3,4-thiadiazol-2-ylthiomethyl)-3-cephem-4-carboxylic acid (syn isomer)], for which the values for the MIC in test [1] and in test [2] were less than 0.025 µg/mL and less than 1.56 µg/mL, respectively.

For `C=CCO/N=C(\C(=O)NC1C(=O)N2C(C(=O)O)=C(CSc3nncs3)CSC12)c1nccc(N)n1` (stereo not drawn) [compound 3, 7-[2-Allyloxyimino-2-(4-aminopyrimidin-2-yl)acetamido]-3-(1,3,4-thiadiazol-2-ylthiomethyl)-3-cephem-4-carboxylic acid (syn isomer)], the MIC was 0.05 µg/mL (≈ 0.0935 µM) in test [1] and less than 1.56 µg/mL in test [2].

Turning to `CO/N=C(\C(=O)NC1C(=O)N2C(C(=O)O)=C(COC(N)=O)CSC12)c1cccc(N)n1` (stereo not drawn) [compound 8, 7-[2-(6-aminopyridin-2-yl)-2-methoxyiminoacetamido]-3-carbamoyloxymethyl-3-cephem-4-carboxylic acid (syn isomer)], the results for the MIC in test [1] and in test [2] were 0.05 µg/mL (≈ 0.111 µM) and 3.13 µg/mL (≈ 6.95 µM), respectively.

As for `CCO/N=C(\C(=O)NC1C(=O)N2C(C(=O)O)=CC(C)SC12)c1cccc(N)n1` (stereo not drawn) [compound 14, 7-[2-(6-aminopyridin-2-yl)-2-ethoxyiminoacetamido]-2-methyl-3-cephem-4-carboxylic acid (syn isomer)], the MIC in test [1] is 0.05 µg/mL (≈ 0.123 µM); in test [2] it was less than 1.56 µg/mL.

On to `Nc1cccc(/C(=N/OCC(F)(F)F)C(=O)NC2C(=O)N3C(C(=O)O)=C(CSc4nnnn4CC(=O)O)CSC23)n1` (stereo not drawn) [compound 5, 7-[2-(6-Aminopyridin-2-yl)-2-(2,2,2-trifluoroethoxyimino)acetamido]-3-[(1-carboxymethyl-1H-tetrazol-5-yl)thiomethyl]-3-cephem-4-carboxylic acid (syn isomer)], for which the MIC in test [1] was 0.025 µg/mL (≈ 0.0405 µM); in test [2] it was less than 1.56 µg/mL.

Regarding `C#CCO/N=C(\C(=O)NC1C(=O)N2C(C(=O)O)=C(CSc3nnnn3C)CSC12)c1cccc(N)n1` (stereo not drawn) [compound 13, 7-[2-(6-aminopyridin-2-yl)-2-propargyloxyiminoacetamido]-3-(1-methyl-1H-tetrazol-5-ylthiomethyl)-3-cephem-4-carboxylic acid (syn isomer)], the MIC in test [1] is 0.05 µg/mL (≈ 0.0944 µM); in test [2] it was no more than 1.56 µg/mL.

`CO/N=C(\C(=O)NC1C(=O)N2C(C(=O)O)=C(CSc3nnnn3C)CSC12)c1nccc(N)n1` (stereo not drawn) [compound 11, 7-[2-(4-aminopyrimidin-2-yl)-2-methoxyiminoacetamido]-3-(1-methyl-1H-tetrazol-5-ylthiomethyl)-3-cephem-4-carboxylic acid (syn isomer)]: the MIC in test [1] is no more than 0.025 µg/mL; in test [2], less than 1.56 µg/mL.

As for `CON=C(C(=O)NC1C(=O)N2C(C(=O)O)=CCS[C@H]12)c1cccc(N)n1` (stereo partly shown) [compound 7, 7-[2-(6-aminopyridin-2-yl)-2-methoxyiminoacetamido]-3-cephem-4-carboxylic acid], the figures for the MIC in test [1] and in test [2] were no more than 0.025 µg/mL and 6.25 µg/mL (≈ 16.6 µM), respectively.

Consider `CCO/N=C(\C(=O)NC1C(=O)N2C(C(=O)O)=C(CSc3nncs3)CSC12)c1nccc(N)n1` (stereo not drawn) [compound 1, 7-[2-(4-Aminopyrimidin-2-yl)-2-ethoxyiminoacetamido]-3-(1,3,4-thiadiazol-2-ylthiomethyl)-3-cephem-4-carboxylic acid (syn isomer)], for which the figures for the MIC in test [1] and in test [2] were less than 0.025 µg/mL and less than 1.56 µg/mL, respectively.

Take `C=CCO/N=C(\C(=O)NC1C(=O)N2C(C(=O)O)=C(CSc3nnnn3C)CSC12)c1cccc(N)n1` (stereo not drawn) [compound 12, 7-[2-allyloxyimino-2-(6-aminopyridin-2-yl)acetamido]-3-(1-methyl-1H-tetrazol-5-ylthiomethyl)-3-cephem-4-carboxylic acid (syn isomer)]: the MIC was 0.05 µg/mL (≈ 0.0941 µM) in test [1] and no more than 1.56 µg/mL in test [2].

For the molecule `CO/N=C(\C(=O)NC1C(=O)N2C(C(=O)O)=C(COC(C)=O)CSC12)c1cccc(N)n1` (stereo not drawn) [compound 9, 7-[2-(6-aminopyridin-2-yl)-2-methoxyiminoacetamido]cephalosporanic acid (syn isomer)], the MIC in test [1] is no more than 0.025 µg/mL; in test [2] it was no more than 1.56 µg/mL.

Consider `CO/N=C(\C(=O)NC1C(=O)N2C(C(=O)O)=C(CSc3nnnn3C)CSC12)c1cccc(N)n1` (stereo not drawn) [compound 6, 7-[2-(6-aminopyridin-2-yl)-2-methoxyiminoacetamido]-3-(1-methyl-1H-tetrazol-5-yl)thiomethyl-3-cephem-4-carboxylic acid (syn isomer)], for which the results for the MIC in test [1] and in test [2] were no more than 0.025 µg/mL and no more than 1.56 µg/mL, respectively.

`C=CCn1nnnc1SCC1=C(C(=O)O)N2C(=O)C(NC(=O)/C(=N\OC)c3nccc(N)n3)C2SC1` (stereo not drawn) [compound 2, 7-[2-(4-Aminopyrimidin-2-yl)-2-methoxyiminoacetamido]-3-[(1-allyl-1H-tetrazol-5-yl)thiomethyl]-3-cephem-4-carboxylic acid (syn isomer)]: the values for the MIC in test [1] and in test [2] were less than 0.025 µg/mL and 6.25 µg/mL (≈ 11.7 µM), respectively.

For the molecule `CON=C(C(=O)NC1C(=O)N2C(C(=O)O)=C(CSc3nnnn3C)CS[C@H]12)c1ccnc(N)n1` (stereo partly shown) [compound 10, 7-[2-(2-aminopyrimidin-4-yl)-2-methoxyiminoacetamido]-3-(1-methyl-1H-tetrazol-5-yl)thiomethyl-3-cephem-4-carboxylic acid], the MIC was 0.2 µg/mL (≈ 0.395 µM) in test [1] and 6.25 µg/mL (≈ 12.3 µM) in test [2].
